One test has as its target TAF1-BD2 (Homo sapiens, UniProt P21675). Briefly: TAF1-BD2 TR-FRET Binding Assay. The settings on record: read-out: TAF1-BD2 HTRF IC50. Here is the method:
IC50 Measurements for Inhibitors Using TAF1-BD2 TR-FRET Binding Assay
His/Flag epitope tagged TAF1-BD21504-1635 was cloned, expressed, and purified to homogeneity. TAF1-BD2 binding and inhibition was assessed by monitoring the engagement of a biotinylated small molecule compound 1000 with the target using the TR-FRET assay technology (Perkin-Elmer). Specifically, in a 384 well ProxiPlate, TAF1-BD2 (0.012 uM final) in 50 mM HEPES (pH 7.5; final), 50 mM NaCl (final), 1 mM TCEP (final), 0.1 mg/mL BSA (final), and 0.069 mM Brij-35 (final) was added either in the presence of DMSO (final 0.2% DMSO) or compound dilution series in DMSO. After a 10 minute incubation at room temperature, biotin-ligand (0.04 uM final) was added. After 10 minutes incubation at room temperature, a mixture Eu-W1024 Anti-6×His antibody (Perkin Elmer AD0110) and SureLight™ Streptavidin-Allophycocyanin (SA-APC, Perkin Elmer CR130-100) were added to a final concentration of 0.2 nM antibody and 0.025 uM SA-APC, respectively. After forty minutes of equilibration at room temperature, the plates were read on an Envision instrument and IC50s calculated using a four parameter logistic model (XLFIT).

A further test concerns the target TAF1-BD1 (Homo sapiens, UniProt P21675). Briefly: TAF1-BD1 TR-FRET Binding Assay. The settings on record: read-out: TAF1-BD1 HTRF IC50. Here is the method:
IC50 Measurements for Inhibitors Using TAF1-BD1 TR-FRET Binding Assay
His/Flag epitope tagged TAF1-BD11381-1497 was cloned, expressed, and purified to homogeneity. TAF1-BD binding and inhibition was assessed by monitoring the engagement of a biotinylated small molecule compound 1000 with the target using the TR-FRET assay technology (Perkin-Elmer). Specifically, in a 384 well ProxiPlate, TAF1-BDI (0.08 uM final) in 50 mM HEPES (pH 7.5; final), 50 mM NaCl (final), 1 mM TCEP (final), 0.1 mg/mL BSA (final), and 0.069 mM Brij-35 (final) was added either in the presence of DMSO (final 0.2% DMSO) or compound dilution series in DMSO. After a 10 minute incubation at room temperature, biotin-ligand (0.08 uM final) was added. After 10 minutes incubation at room temperature, a mixture Eu-W1024 Anti-6×His antibody (Perkin Elmer ADO 110) and SureLight™ Streptavidin-Allophycocyanin (SA-APC, Perkin Elmer CR130-100) were added to final concentrations of 0.2 nM antibody and 0.05 uM SA-APC, respectively. After forty minutes of equilibration at room temperature, the plates were read on an Envision instrument and IC50s calculated using a four parameter logistic model (XLFIT).
On the technique in general: In TR-FRET formats the signal depends on donor and acceptor labels being close together.

We go through 23 molecules from patent publication US10202378B2, “Therapeutic compounds and uses thereof” (GENENTECH, INC., priority 2015, dated 2019).

With `Cc1[nH]c2c(=O)n(C)cc(C#CC(C)(O)C3CC3)c2c1C(=O)OC(C)C(C)C` (stereo not shown) [Example 141, 1,2-dimethylpropyl 4-(3-cyclopropyl-3-hydroxy-but-1-ynyl)-2,6-dimethyl-7-oxo-1H-pyrrolo[2,3-c]pyridine-3-carboxylate], the IC50 (commonly the point on the concentration scale where inhibition reaches its midpoint) was 75.6 nM on TAF1-BD2 and 244 nM on TAF1-BD1.

`CCOC(=O)c1c(C)[nH]c2c(=O)n(C)cc(C#CC(C)(O)c3cccc(C#N)c3)c12` (stereo not shown) [Example 19, ethyl 4-[3-(3-cyanophenyl)-3-hydroxy-but-1-ynyl]-2,6-dimethyl-7-oxo-1H-pyrrolo[2,3-c]pyridine-3-carboxylate]: the IC50 at TAF1-BD2 was determined as 30.3 nM; on TAF1-BD1, 146 nM.

As to `Cc1[nH]c2c(=O)n(C)cc(C#CC(C)(O)C3CC3)c2c1C(=O)OCC(C)C` (stereo not shown) [Example 126, isobutyl 4-(3-cyclopropyl-3-hydroxy-but-1-ynyl)-2,6-dimethyl-7-oxo-1H-pyrrolo[2,3-c]pyridine-3-carboxylate], the IC50 at TAF1-BD2 came out at 40.1 nM; at TAF1-BD1, 123 nM.

As for `CCOC(=O)c1c(C)[nH]c2c(=O)n(C)cc(C#CC3(O)C(=O)N(C)c4ccccc43)c12` (stereo not shown) [Example 86, ethyl 4-[2-(3-hydroxy-1-methyl-2-oxo-indolin-3-yl)ethynyl]-2,6-dimethyl-7-oxo-1H-pyrrolo[2,3-c]pyridine-3-carboxylate], the half-inhibitory concentration (IC50) at TAF1-BD2 came to 98.1 nM; on TAF1-BD1, 581 nM.

Turning to `CCOC(=O)c1c[nH]c2c(=O)n(C)cc(C#CC(C)(C)O)c12` [Example 53, ethyl 4-(3-hydroxy-3-methyl-but-1-ynyl)-6-methyl-7-oxo-1H-pyrrolo[2,3-c]pyridine-3-carboxylate], the IC50 came out at 95.2 nM on TAF1-BD2 and 859 nM at TAF1-BD1.

For the molecule `Cc1nnc(-c2c(C)[nH]c3c(=O)n(C)cc(C#CC(C)(C)O)c23)o1` [Example 177, 4-(3-hydroxy-3-methyl-but-1-ynyl)-2,6-dimethyl-3-(5-methyl-1,3,4-oxadiazol-2-yl)-1H-pyrrolo[2,3-c]pyridin-7-one], the IC50 on TAF1-BD2 came to 50.7 nM; on TAF1-BD1, 543 nM.

As for `CCOC(=O)c1c(C)[nH]c2c(=O)n(C)cc(C#CC3(O)CCCCC3)c12` [Example 81, ethyl 4-[2-(1-hydroxycyclohexyl)ethynyl]-2,6-dimethyl-7-oxo-1H-pyrrolo[2,3-c]pyridine-3-carboxylate], the IC50 came to 63.2 nM at TAF1-BD2 and 257 nM at TAF1-BD1.

For `C=CCCn1cc(C#C[C@@](C)(O)c2cc(C)on2)c2c(C(=O)OCC(C)C)c(C)[nH]c2c1=O` [Example 125, isobutyl 6-but-3-enyl-4-[(3R)-3-hydroxy-3-(5-methylisoxazol-3-yl)but-1-ynyl]-2-methyl-7-oxo-1H-pyrrolo[2,3-c]pyridine-3-carboxylate], the figures for the IC50 at TAF1-BD2 and on TAF1-BD1 were 169 nM and 3050 nM, respectively.

Regarding `CCOC(=O)c1c(C)[nH]c2c(=O)n(C)cc(C#Cc3ccccc3OC(F)(F)F)c12` [Example 57, ethyl 2,6-dimethyl-7-oxo-4-[2-[2-(trifluoromethoxy)phenyl]ethynyl]-1H-pyrrolo[2,3-c]pyridine-3-carboxylate], the IC50 on TAF1-BD2 is 59.6 nM; on TAF1-BD1, more than 20000 nM.

Turning to `Cc1nnc(-c2c(C)[nH]c3c(=O)n(C)cc(C#CC(O)(c4ccccc4)C(F)(F)F)c23)o1` (stereo not shown) [Example 184, 2,6-dimethyl-3-(5-methyl-1,3,4-oxadiazol-2-yl)-4-(4,4,4-trifluoro-3-hydroxy-3-phenyl-but-1-ynyl)-1H-pyrrolo[2,3-c]pyridin-7-one], the IC50 at TAF1-BD2 was 62.7 nM; at TAF1-BD1, 327 nM.

In the case of `CC(=O)NCc1nnc(-c2c(C)[nH]c3c(=O)n(C)cc(C#CC(C)(O)C4CC4)c23)o1` (stereo not shown) [Example 174, N-[[5-[4-(3-cyclopropyl-3-hydroxy-but-1-ynyl)-2,6-dimethyl-7-oxo-1H-pyrrolo[2,3-c]pyridin-3-yl]-1,3,4-oxadiazol-2-yl]methyl]acetamide], the values for the concentration for half-maximal inhibition (IC50) at TAF1-BD2 and at TAF1-BD1 were 86.4 nM and 521 nM, respectively.

As to `Cc1[nH]c2c(=O)n(C)cc(C#CC(C)(O)C3CC3)c2c1-c1nnc(C(C)(C)C)o1` (single isomer, unassigned) [Example 98b, 3-(5-tert-butyl-1,3,4-oxadiazol-2-yl)-4-(3-cyclopropyl-3-hydroxy-but-1-ynyl)-2,6-dimethyl-1H-pyrrolo[2,3-c]pyridin-7-one], the IC50 turned out to be 33.9 nM at TAF1-BD2 and 108 nM at TAF1-BD1.

With `CCOC(=O)c1c(C)[nH]c2c(=O)n(C)cc(C#CC(C)(O)CC#N)c12` (stereo not shown) [Example 35, ethyl 4-(4-cyano-3-hydroxy-3-methyl-but-1-ynyl)-2,6-dimethyl-7-oxo-1H-pyrrolo[2,3-c]pyridine-3-carboxylate], the half-inhibitory concentration (IC50) at TAF1-BD2 is 100 nM; at TAF1-BD1, 139 nM.

As to `Cc1[nH]c2c(=O)n(C)cc(C#CC(C)(O)C3CC3)c2c1-c1nnc(C(C)(C)C)o1` (stereo not shown) [Example 187, 3-(5-tert-butyl-1,3,4-oxadiazol-2-yl)-4-(3-cyclopropyl-3-hydroxy-but-1-ynyl)-2,6-dimethyl-1H-pyrrolo[2,3-c]pyridin-7-one], the IC50 at TAF1-BD2 worked out at 58 nM; on TAF1-BD1 it was 216 nM.

On to `Cc1cc([C@](C)(O)C#Cc2cn(C)c(=O)c3[nH]c(C)c(C(=O)OCC(C)C)c23)no1` [Example 158, isobutyl 4-[(3R)-3-hydroxy-3-(5-methylisoxazol-3-yl)but-1-ynyl]-2,6-dimethyl-7-oxo-1H-pyrrolo[2,3-c]pyridine-3-carboxylate], for which the half-inhibitory concentration (IC50) amounted to 50.2 nM at TAF1-BD2 and 112 nM at TAF1-BD1.

As for `Cc1[nH]c2c(=O)n(C)cc(C#CC(C)(C)O)c2c1C(=O)OCc1ccccc1F` [Example 119, (2-fluorophenyl)methyl 4-(3-hydroxy-3-methyl-but-1-ynyl)-2,6-dimethyl-7-oxo-1H-pyrrolo[2,3-c]pyridine-3-carboxylate], the IC50 was 26.7 nM on TAF1-BD2 and 145 nM at TAF1-BD1.

Consider `Cc1[nH]c2c(=O)n(C)cc(C#CC(C)(O)c3ccccc3)c2c1C(=O)OCC(C)C` (stereo not shown) [Example 160, isobutyl 4-(3-hydroxy-3-phenyl-but-1-ynyl)-2,6-dimethyl-7-oxo-1H-pyrrolo[2,3-c]pyridine-3-carboxylate], for which the concentration for half-maximal inhibition (IC50) turned out to be 32.4 nM at TAF1-BD2 and 130 nM on TAF1-BD1.

`CCOC(=O)c1c(C)[nH]c2c(=O)n(C)cc(C#C[C@@H]3CCC[C@H]3O)c12` (stereo in doubt) [Example 83, ethyl 4-[2-(2-hydroxycyclopentyl)ethynyl]-2,6-dimethyl-7-oxo-1H-pyrrolo[2,3-c]pyridine-3-carboxylate]: the IC50 on TAF1-BD2 was 302 nM; on TAF1-BD1, 2590 nM.

`CCOC(=O)c1c(C)[nH]c2c(=O)n(C)cc(C#CC3(O)CC3)c12` [Example 18, ethyl 4-[2-(1-hydroxycyclopropyl)ethynyl]-2,6-dimethyl-7-oxo-1H-pyrrolo[2,3-c]pyridine-3-carboxylate]: the IC50 on TAF1-BD2 was 85.4 nM; on TAF1-BD1, 632 nM.

For `Cc1[nH]c2c(=O)n(C)cc(C#CC(C)(C)O)c2c1C(=O)OCc1ccccc1` [Example 103, Benzyl 4-(3-hydroxy-3-methyl-but-1-ynyl)-2,6-dimethyl-7-oxo-1H-pyrrolo[2,3-c]pyridine-3-carboxylate], the values for the IC50 on TAF1-BD2 and on TAF1-BD1 were 34.5 nM and 151 nM, respectively.

For the molecule `CCCCC(C)(C)OC(=O)c1c(C)[nH]c2c(=O)n(C)cc(C#CC(C)(C)O)c12` [Example 146, 1,1-dimethylpentyl 4-(3-hydroxy-3-methyl-but-1-ynyl)-2,6-dimethyl-7-oxo-1H-pyrrolo[2,3-c]pyridine-3-carboxylate], the 50% inhibitory concentration (IC50) at TAF1-BD2 was found to be 43.2 nM; on TAF1-BD1, 288 nM.

For the molecule `CCOC(=O)c1c(C)[nH]c2c(=O)n(C)cc(C#Cc3cncn3C)c12` [Example 56, ethyl 2,6-dimethyl-4-[2-(3-methylimidazol-4-yl)ethynyl]-7-oxo-1H-pyrrolo[2,3-c]pyridine-3-carboxylate], the results for the IC50 on TAF1-BD2 and at TAF1-BD1 were 129 nM and 337 nM, respectively.

As for `CCOC(=O)c1c(C)[nH]c2c(=O)n(C)cc(C#CC3(O)CCN(C)C3=O)c12` (stereo not shown) [Example 74, ethyl 4-[2-(3-hydroxy-1-methyl-2-oxo-pyrrolidin-3-yl)ethynyl]-2,6-dimethyl-7-oxo-1H-pyrrolo[2,3-c]pyridine-3-carboxylate], the IC50 amounted to 209 nM at TAF1-BD2 and 2040 nM at TAF1-BD1.
